From US20240252695A9, “RADIOLABELED ETHER DENDRIMER CONJUGATES FOR PET IMAGING AND RADIOTHERAPY” (Ashvattha Therapeutics, Inc., priority 2020, published 2024)

Tested on: reactive microglia
Assay: PET/CT imaging of neuroinflammation in 5×FAD transgenic mice vs wild type
Format: in vivo, mouse
Conditions: 3.75 months of age
Text: To further evaluate the ability of ^18F-OP-801 to image neuroinflammation in neurogenerative diseases, the 5×FAD transgenic mouse model was used. 5×FAD transgenic mice (B6SJL-Tg (APPSwFlLon,PSEN1*M146L*L286V)6799Vas) expressed human APP and PSEN1 transgenes developing amyloid plaque within a few months after birth and previous studies with TSPO PET radiotracers have only been able to detect neuroinflammation around 6 months (˜26 weeks) of age with a high TPSO affinity radiotracer, ^18F-GE180. 5×FAD female mice and age matched controls were used at 3.75 months of age to evaluate ^18F-OP-801 compared to the TPSO radiotracer, ^18F-GE180. ^18F-OP-801 ([…]) was injected as an IV bolus into wild type (n=7) and 5×FAD females (n=12) at 3.75 months of age. ^18F-GE180 (150-250 μCi) was administered to the 5×FAD transgenic (n=5) and wild type (n=4) female mice at 3.75 months of age. Static 10-minute PET/CT images were acquired at 50-60 minutes post-injection.

## CCN(CC)C(=O)[C@H]1CCCc2c1c1c(OC)cccc1n2CC[18F] [^18F-GE180]
50-60 minutes post-injection
  PET signal in 5×FAD mice compared to wild type mice: minimal PET signal differences
5xFAD mice
  TG-to-WT ratio, Cortex: 1.21
  TG-to-WT ratio, Hippocampus: 1.24
  TG-to-WT ratio, Whole Brain: 1.21
